Data from the kinase profiling compilation of Christmann-Franck et al. (2016).

Key:
Assay in all cases: KINOMEscan competition binding
Conditions in all cases: compound 10.0 µM
ADCK3 (human) = ADCK3 (human) (UniProt Q8NI60)
BMPR1A (human) = BMPR1A (human) (UniProt P36894)
CAMK2B (human) = CAMK2B (human) (UniProt Q13554)
CAMK4 (human) = CAMK4 (human) (UniProt Q16566)
CDC2L2 (human) = CDC2L2 (human) (UniProt Q9UQ88)
CDC42BPG (human) = CDC42BPG (human) (UniProt Q6DT37)
CDK3 (human) = CDK3 (human) (UniProt Q00526)
CDK5 (human) = CDK5 (human) (UniProt Q00535)
CDKL2 (human) = CDKL2 (human) (UniProt Q92772)
CHEK1 (human) = CHEK1 (human) (UniProt O14757)
CIT (human) = CIT (human) (UniProt O14578)
CLK2 (human) = CLK2 (human) (UniProt P49760)
CLK3 (human) = CLK3 (human) (UniProt P49761)
CSNK1E (human) = CSNK1E (human) (UniProt P49674)
EPHB1 (human) = EPHB1 (human) (UniProt P54762)
FES (human) = FES (human) (UniProt P07332)
FGFR4 (human) = FGFR4 (human) (UniProt P22455)
FLT4 (human) = FLT4 (human) (UniProt P35916)
GAK (human) = GAK (human) (UniProt O14976)
LATS2 (human) = LATS2 (human) (UniProt Q9NRM7)
MAP4K2 (human) = MAP4K2 (human) (UniProt Q12851)
MAPKAPK2 (human) = MAPKAPK2 (human) (UniProt P49137)
NEK1 (human) = NEK1 (human) (UniProt Q96PY6)
NEK2 (human) = NEK2 (human) (UniProt P51955)
NEK6 (human) = NEK6 (human) (UniProt Q9HC98)
PIM1 (human) = PIM1 (human) (UniProt P11309)
PRKACB (human) = PRKACB (human) (UniProt P22694)
RIPK2 (human) = RIPK2 (human) (UniProt O43353)
RIPK4 (human) = RIPK4 (human) (UniProt P57078)
RIPK4 (human), sequence (P57078 whole entry, looked up): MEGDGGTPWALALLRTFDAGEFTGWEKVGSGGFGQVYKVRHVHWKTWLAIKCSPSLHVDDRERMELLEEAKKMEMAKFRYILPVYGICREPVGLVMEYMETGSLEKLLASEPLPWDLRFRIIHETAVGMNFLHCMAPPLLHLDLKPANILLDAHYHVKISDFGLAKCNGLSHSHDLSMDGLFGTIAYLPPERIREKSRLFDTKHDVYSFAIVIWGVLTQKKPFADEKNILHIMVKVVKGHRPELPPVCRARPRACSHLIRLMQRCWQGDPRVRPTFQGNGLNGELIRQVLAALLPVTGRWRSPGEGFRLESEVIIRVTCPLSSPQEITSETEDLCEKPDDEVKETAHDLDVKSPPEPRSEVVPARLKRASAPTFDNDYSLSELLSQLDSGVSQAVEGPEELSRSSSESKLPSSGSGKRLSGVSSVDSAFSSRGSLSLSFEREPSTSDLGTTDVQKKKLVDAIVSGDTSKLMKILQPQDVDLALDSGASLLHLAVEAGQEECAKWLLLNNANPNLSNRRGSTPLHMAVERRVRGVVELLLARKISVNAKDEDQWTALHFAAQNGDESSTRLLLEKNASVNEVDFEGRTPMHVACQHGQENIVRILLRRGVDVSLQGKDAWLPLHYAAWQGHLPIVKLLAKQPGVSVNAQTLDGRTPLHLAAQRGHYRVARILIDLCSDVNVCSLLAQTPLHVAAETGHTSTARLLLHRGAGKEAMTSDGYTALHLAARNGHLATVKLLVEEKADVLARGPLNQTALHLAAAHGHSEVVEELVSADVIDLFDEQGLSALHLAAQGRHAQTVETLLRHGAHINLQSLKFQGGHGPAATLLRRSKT

RPS6KA3 KD1 (human) = RPS6KA3 KD1 (human) (UniProt P51812)
RPS6KA6 KD2 (human) = RPS6KA6 KD2 (human) (UniProt Q9UK32)
RPS6KA6 KD2 (human), sequence (Q9UK32 whole entry, looked up): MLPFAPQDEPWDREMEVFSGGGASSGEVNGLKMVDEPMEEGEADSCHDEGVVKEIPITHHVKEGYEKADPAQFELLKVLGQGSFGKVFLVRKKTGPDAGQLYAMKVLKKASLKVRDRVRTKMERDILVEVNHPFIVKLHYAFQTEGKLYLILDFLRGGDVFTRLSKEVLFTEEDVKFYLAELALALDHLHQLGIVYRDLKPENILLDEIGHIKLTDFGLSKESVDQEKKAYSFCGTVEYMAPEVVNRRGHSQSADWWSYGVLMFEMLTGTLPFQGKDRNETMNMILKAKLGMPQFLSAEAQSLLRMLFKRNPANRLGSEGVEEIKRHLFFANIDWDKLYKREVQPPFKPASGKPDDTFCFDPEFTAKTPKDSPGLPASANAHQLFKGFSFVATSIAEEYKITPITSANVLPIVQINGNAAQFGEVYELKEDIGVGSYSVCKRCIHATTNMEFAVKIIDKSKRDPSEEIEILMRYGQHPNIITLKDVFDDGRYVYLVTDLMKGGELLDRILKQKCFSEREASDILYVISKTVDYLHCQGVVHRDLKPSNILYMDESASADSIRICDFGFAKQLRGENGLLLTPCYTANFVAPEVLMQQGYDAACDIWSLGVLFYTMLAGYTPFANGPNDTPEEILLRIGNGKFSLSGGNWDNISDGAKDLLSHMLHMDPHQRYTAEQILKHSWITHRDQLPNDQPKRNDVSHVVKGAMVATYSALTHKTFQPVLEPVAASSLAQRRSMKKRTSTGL

SIK1 (human) = SIK1 (human) (UniProt P57059)
SIK1 (human), sequence (P57059 whole entry, looked up): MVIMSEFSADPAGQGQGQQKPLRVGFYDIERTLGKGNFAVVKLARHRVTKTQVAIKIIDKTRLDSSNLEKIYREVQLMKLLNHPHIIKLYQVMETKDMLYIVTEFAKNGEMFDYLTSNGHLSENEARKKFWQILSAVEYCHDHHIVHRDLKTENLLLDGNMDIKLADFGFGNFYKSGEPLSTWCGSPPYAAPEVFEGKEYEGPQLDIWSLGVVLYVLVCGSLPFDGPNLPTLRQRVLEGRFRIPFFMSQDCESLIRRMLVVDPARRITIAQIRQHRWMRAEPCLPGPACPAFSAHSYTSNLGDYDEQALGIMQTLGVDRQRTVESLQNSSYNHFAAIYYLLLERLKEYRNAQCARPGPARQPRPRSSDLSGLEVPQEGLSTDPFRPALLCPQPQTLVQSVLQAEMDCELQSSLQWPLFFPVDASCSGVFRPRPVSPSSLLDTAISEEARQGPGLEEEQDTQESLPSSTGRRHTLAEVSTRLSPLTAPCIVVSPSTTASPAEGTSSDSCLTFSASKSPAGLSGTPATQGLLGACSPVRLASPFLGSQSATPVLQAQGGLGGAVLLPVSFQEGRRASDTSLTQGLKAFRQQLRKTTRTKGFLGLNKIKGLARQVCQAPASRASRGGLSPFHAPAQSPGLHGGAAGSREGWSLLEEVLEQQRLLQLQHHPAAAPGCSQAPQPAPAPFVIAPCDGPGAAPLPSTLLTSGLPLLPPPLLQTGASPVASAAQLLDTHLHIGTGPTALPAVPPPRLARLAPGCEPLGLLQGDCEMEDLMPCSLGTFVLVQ

STK10 (human) = STK10 (human) (UniProt O94804)
STK25 (human) = STK25 (human) (UniProt O00506)
TAOK1 (human) = TAOK1 (human) (UniProt Q7L7X3)
TNIK (human) = TNIK (human) (UniProt Q9UKE5)
TNNI3K (human) = TNNI3K (human) (UniProt Q59H18)
TSSK1B (human) = TSSK1B (human) (UniProt Q9BXA7)
TSSK1B (human), sequence (Q9BXA7 whole entry, looked up): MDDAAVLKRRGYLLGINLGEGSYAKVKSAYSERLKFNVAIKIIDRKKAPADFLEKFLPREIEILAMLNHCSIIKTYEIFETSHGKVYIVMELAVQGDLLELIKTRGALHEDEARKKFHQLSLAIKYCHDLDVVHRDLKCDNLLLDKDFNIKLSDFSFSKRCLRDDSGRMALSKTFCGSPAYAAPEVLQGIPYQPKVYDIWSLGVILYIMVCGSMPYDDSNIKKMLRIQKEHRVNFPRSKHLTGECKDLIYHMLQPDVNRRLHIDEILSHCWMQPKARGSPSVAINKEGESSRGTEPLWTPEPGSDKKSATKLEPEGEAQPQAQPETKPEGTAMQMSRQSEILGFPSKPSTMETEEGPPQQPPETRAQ

ULK2 (human) = ULK2 (human) (UniProt Q8IYT8)
ULK3 (human) = ULK3 (human) (UniProt Q6PHR2)

CDC42BPG (human), sequence (Q6DT37 whole entry, looked up): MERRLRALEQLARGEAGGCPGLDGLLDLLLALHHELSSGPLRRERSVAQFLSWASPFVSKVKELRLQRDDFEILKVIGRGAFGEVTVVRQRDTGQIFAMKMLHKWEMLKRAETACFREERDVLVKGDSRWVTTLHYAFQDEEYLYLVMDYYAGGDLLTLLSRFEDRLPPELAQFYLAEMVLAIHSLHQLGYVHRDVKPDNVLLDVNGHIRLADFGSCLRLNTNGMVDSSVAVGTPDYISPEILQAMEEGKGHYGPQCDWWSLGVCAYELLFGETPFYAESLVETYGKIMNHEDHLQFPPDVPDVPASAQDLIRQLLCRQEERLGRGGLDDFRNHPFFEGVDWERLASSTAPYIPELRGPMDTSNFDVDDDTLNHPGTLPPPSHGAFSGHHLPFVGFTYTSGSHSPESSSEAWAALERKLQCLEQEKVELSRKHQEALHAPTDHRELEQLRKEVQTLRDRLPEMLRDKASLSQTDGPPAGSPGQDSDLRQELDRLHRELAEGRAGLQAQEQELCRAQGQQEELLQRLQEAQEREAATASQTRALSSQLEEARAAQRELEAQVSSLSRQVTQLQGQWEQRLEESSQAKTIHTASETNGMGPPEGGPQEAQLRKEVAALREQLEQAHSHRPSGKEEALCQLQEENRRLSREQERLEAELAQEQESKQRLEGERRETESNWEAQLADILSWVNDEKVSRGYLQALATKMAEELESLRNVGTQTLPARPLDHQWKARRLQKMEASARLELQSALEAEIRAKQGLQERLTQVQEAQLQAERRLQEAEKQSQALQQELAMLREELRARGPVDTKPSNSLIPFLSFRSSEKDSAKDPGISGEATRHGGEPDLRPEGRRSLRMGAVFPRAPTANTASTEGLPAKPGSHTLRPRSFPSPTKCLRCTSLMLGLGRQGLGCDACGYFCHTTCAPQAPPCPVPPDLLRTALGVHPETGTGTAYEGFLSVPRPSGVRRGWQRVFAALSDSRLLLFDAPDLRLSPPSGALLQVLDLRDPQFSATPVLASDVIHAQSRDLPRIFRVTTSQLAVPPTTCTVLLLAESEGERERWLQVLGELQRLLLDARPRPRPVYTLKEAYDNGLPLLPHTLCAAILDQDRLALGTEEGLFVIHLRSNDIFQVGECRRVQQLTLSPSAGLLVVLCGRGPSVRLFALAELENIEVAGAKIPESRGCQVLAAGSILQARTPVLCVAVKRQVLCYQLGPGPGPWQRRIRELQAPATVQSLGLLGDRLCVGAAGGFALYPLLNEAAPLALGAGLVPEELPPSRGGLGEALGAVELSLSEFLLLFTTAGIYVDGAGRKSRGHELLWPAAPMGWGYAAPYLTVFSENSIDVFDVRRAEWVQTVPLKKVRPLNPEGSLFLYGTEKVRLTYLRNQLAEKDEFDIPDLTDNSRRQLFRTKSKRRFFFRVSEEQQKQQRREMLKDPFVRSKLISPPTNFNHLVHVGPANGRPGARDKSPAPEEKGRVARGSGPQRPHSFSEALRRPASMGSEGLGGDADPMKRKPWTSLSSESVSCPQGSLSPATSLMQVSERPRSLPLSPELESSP
CAMK2B (human), sequence (Q13554 whole entry, looked up): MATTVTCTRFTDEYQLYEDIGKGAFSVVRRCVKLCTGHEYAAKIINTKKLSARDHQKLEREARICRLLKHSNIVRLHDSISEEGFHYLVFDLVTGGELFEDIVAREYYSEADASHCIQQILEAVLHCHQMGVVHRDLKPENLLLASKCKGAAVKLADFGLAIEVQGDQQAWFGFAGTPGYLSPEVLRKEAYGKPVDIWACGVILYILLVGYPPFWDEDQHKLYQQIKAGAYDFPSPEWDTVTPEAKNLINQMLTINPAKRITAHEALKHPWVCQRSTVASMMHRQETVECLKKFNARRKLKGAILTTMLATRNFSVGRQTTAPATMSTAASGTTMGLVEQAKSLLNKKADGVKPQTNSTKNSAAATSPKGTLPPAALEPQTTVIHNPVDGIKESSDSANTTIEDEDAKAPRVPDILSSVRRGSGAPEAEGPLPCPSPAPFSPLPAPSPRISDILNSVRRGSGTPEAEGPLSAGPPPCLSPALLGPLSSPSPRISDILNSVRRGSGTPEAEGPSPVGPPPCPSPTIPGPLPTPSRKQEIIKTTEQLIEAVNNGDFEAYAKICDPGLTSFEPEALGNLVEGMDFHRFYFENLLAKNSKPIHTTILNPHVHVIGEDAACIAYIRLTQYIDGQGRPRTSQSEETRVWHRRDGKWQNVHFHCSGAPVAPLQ

| Compound | kinase still bound, per cent of control (ADCK3 (human)) [%] | kinase still bound, per cent of control (BMPR1A (human)) [%] | kinase still bound, per cent of control (CAMK2B (human)) [%] | kinase still bound, per cent of control (CAMK4 (human)) [%] | kinase still bound, per cent of control (CDC2L2 (human)) [%] | kinase still bound, per cent of control (CDC42BPG (human)) [%] | kinase still bound, per cent of control (CDK3 (human)) [%] | kinase still bound, per cent of control (CDK5 (human)) [%] | kinase still bound, per cent of control (CDKL2 (human)) [%] | kinase still bound, per cent of control (CHEK1 (human)) [%] | kinase still bound, per cent of control (CIT (human)) [%] | kinase still bound, per cent of control (CLK2 (human)) [%] | kinase still bound, per cent of control (CLK3 (human)) [%] | kinase still bound, per cent of control (CSNK1E (human)) [%] | kinase still bound, per cent of control (EPHB1 (human)) [%] | kinase still bound, per cent of control (FES (human)) [%] | kinase still bound, per cent of control (FGFR4 (human)) [%] | kinase still bound, per cent of control (FLT4 (human)) [%] | kinase still bound, per cent of control (GAK (human)) [%] | kinase still bound, per cent of control (LATS2 (human)) [%] | other results |
| --- | --- | --- | --- | --- | --- | --- | --- | --- | --- | --- | --- | --- | --- | --- | --- | --- | --- | --- | --- | --- | --- |
| C=CC(=O)Nc1cccc(Oc2nc(Nc3ccc(N4CCN(C)CC4)cc3OC)ncc2Cl)c1 | 100 | 100 | 100 | 100 | 100 | 100 | 100 | 100 | 100 | 7 | 100 | 100 | 100 | 100 | 100 | 11 | 100 | 100 | 0.45 | 100 | kinase still bound, per cent of control (MAP4K2 (human)): 100%; kinase still bound, per cent of control (MAPKAPK2 (human)): 100%; kinase still bound, per cent of control (NEK1 (human)): 100%; kinase still bound, per cent of control (NEK2 (human)): 100%; kinase still bound, per cent of control (NEK6 (human)): 9%; kinase still bound, per cent of control (PIM1 (human)): 100%; kinase still bound, per cent of control (PRKACB (human)): 100%; kinase still bound, per cent of control (RIPK2 (human)): 100%; kinase still bound, per cent of control (RIPK4 (human)): 100%; kinase still bound, per cent of control (RPS6KA3 KD1 (human)): 100%; kinase still bound, per cent of control (RPS6KA6 KD2 (human)): 27%; kinase still bound, per cent of control (SIK1 (human)): 100%; kinase still bound, per cent of control (STK10 (human)): 100%; kinase still bound, per cent of control (STK25 (human)): 100%; kinase still bound, per cent of control (TAOK1 (human)): 100%; kinase still bound, per cent of control (TNIK (human)): 100%; kinase still bound, per cent of control (TNNI3K (human)): 100%; kinase still bound, per cent of control (TSSK1B (human)): 100%; kinase still bound, per cent of control (ULK2 (human)): 2%; kinase still bound, per cent of control (ULK3 (human)): 12% |
| COc1cc(C(=O)NC2CCN(C)CC2)ccc1Nc1ncc2c(n1)N(C1CCCC1)CCC(=O)N2C(C)C | 100 | 100 | 100 | 100 | 100 | 100 | 100 | 100 | 100 | 100 | 100 | 100 | 100 | 100 | 100 | 100 | 100 | 0 | 100 | 100 | kinase still bound, per cent of control (MAP4K2 (human)): 100%; kinase still bound, per cent of control (MAPKAPK2 (human)): 100%; kinase still bound, per cent of control (NEK1 (human)): 100%; kinase still bound, per cent of control (NEK2 (human)): 100%; kinase still bound, per cent of control (NEK6 (human)): 100%; kinase still bound, per cent of control (PIM1 (human)): 100%; kinase still bound, per cent of control (PRKACB (human)): 100%; kinase still bound, per cent of control (RIPK2 (human)): 100%; kinase still bound, per cent of control (RIPK4 (human)): 100%; kinase still bound, per cent of control (RPS6KA3 KD1 (human)): 100%; kinase still bound, per cent of control (RPS6KA6 KD2 (human)): 100%; kinase still bound, per cent of control (SIK1 (human)): 100%; kinase still bound, per cent of control (STK10 (human)): 100%; kinase still bound, per cent of control (STK25 (human)): 100%; kinase still bound, per cent of control (TAOK1 (human)): 100%; kinase still bound, per cent of control (TNIK (human)): 100%; kinase still bound, per cent of control (TNNI3K (human)): 100%; kinase still bound, per cent of control (TSSK1B (human)): 100%; kinase still bound, per cent of control (ULK2 (human)): 100%; kinase still bound, per cent of control (ULK3 (human)): 100% |
| O=C(NC1CC1)c1cccc(-c2ccc3c(NC(=O)C4CC4)n[nH]c3c2)c1 | 78 | 76 | 84 | 100 | 85 | 62 | 7.2 | 60 | 8.6 | 100 | 89 | 37 | 80 | 80 | 100 | 100 | 94 | 100 | 49 | 85 | kinase still bound, per cent of control (MAP4K2 (human)): 99%; kinase still bound, per cent of control (MAPKAPK2 (human)): 100%; kinase still bound, per cent of control (NEK1 (human)): 86%; kinase still bound, per cent of control (NEK2 (human)): 80%; kinase still bound, per cent of control (NEK6 (human)): 90%; kinase still bound, per cent of control (PIM1 (human)): 70%; kinase still bound, per cent of control (PRKACB (human)): 100%; kinase still bound, per cent of control (RIPK2 (human)): 72%; kinase still bound, per cent of control (RIPK4 (human)): 84%; kinase still bound, per cent of control (RPS6KA3 KD1 (human)): 86%; kinase still bound, per cent of control (RPS6KA6 KD2 (human)): 60%; kinase still bound, per cent of control (SIK1 (human)): 84%; kinase still bound, per cent of control (STK10 (human)): 57%; kinase still bound, per cent of control (STK25 (human)): 76%; kinase still bound, per cent of control (TAOK1 (human)): 4.5%; kinase still bound, per cent of control (TNIK (human)): 25%; kinase still bound, per cent of control (TNNI3K (human)): 92%; kinase still bound, per cent of control (TSSK1B (human)): 69%; kinase still bound, per cent of control (ULK2 (human)): 77%; kinase still bound, per cent of control (ULK3 (human)): 13% |
